Reference: PubChem BioAssay AID1963984 (Molecular Pharmacology Branch, DTP, NCI, 2024)

System: 233499-124-R-J3-PDC spheroids with HUVEC/MSC, viability
Experiment: Anticancer human tumor 233499-124-R-J3-PDC patient-derived colon adenocarcinoma cell line growth inhibition [PI3K]
Conditions: for IC50: curve of first compound; for viability, T/C: stronger effect = lower value
Outline: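 Spheroid viability read-out. Co-cultures contained the tumor line plus HUVEC and human MSCs. Each agent was paired with a PI3K inhibitor (inavolisib, alpelisib, duvelisib, copanlisib) across half-log dilutions starting at clinical Cmax, or at 10 microM when Cmax was unknown.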

[1] = second compound 0.00316 µM, first compound 0.0316 µM
[2] = second compound 0.00316 µM, first compound 0.1 µM
[3] = second compound 0.00316 µM, first compound 0.316 µM
[4] = second compound 0.00316 µM, first compound 1 µM
[5] = second compound 0.00316 µM, first compound 3.16 µM
[6] = second compound 0.00316 µM, first compound 10 µM
[7] = second compound 0.01 µM, first compound 0.0316 µM
[8] = second compound 0.01 µM, first compound 0.1 µM
[9] = second compound 0.01 µM, first compound 0.316 µM
[10] = second compound 0.01 µM, first compound 1 µM
[11] = second compound 0.01 µM, first compound 3.16 µM
[12] = second compound 0.01 µM, first compound 10 µM
[13] = second compound 0.0316 µM, first compound 0.0316 µM
[14] = second compound 0.0316 µM, first compound 0.1 µM
[15] = second compound 0.0316 µM, first compound 0.316 µM
[16] = second compound 0.0316 µM, first compound 1 µM
[17] = second compound 0.0316 µM, first compound 3.16 µM
[18] = second compound 0.0316 µM, first compound 10 µM
[19] = second compound 0.1 µM, first compound 0.0316 µM
[20] = second compound 0.1 µM, first compound 0.1 µM
[21] = second compound 0.1 µM, first compound 0.316 µM
[22] = second compound 0.1 µM, first compound 1 µM
[23] = second compound 0.1 µM, first compound 3.16 µM
[24] = second compound 0.1 µM, first compound 10 µM
[25] = second compound 0.316 µM, first compound 0.0316 µM
[26] = second compound 0.316 µM, first compound 0.1 µM
[27] = second compound 0.316 µM, first compound 0.316 µM
[28] = second compound 0.316 µM, first compound 1 µM
[29] = second compound 0.316 µM, first compound 3.16 µM
[30] = second compound 0.316 µM, first compound 10 µM
[31] = second compound 1 µM, first compound 0.0316 µM
[32] = second compound 1 µM, first compound 0.1 µM
[33] = second compound 1 µM, first compound 0.316 µM
[34] = second compound 1 µM, first compound 1 µM
[35] = second compound 1 µM, first compound 3.16 µM
[36] = second compound 1 µM, first compound 10 µM
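Note: spheroids exposed to agents for seven days before readout.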
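Throughout, for viability, T/C: percent viability relative to DMSO vehicle control taken as 100%.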

Question: Which results are given for `CC1(C)CCC(Nc2ncc(C(F)(F)F)c(-c3c[nH]c4c(P(C)(C)=O)c(C#N)ccc34)n2)CN1` (centres undefined) + COc1c(OCCCN2CCOCC2)ccc2c3n(c(=NC(=O)c4cnc(N)nc4)nc12)CCN3?
Answer: IC50 (second compound 0.00316 µM): 287 nM; IC50 (second compound 0.01 µM): 205 nM; IC50 (second compound 0.0316 µM): 56.7 nM; IC50 (second compound 0.1 µM): 102 nM; IC50 (second compound 0.316 µM): < 31.6 nM; IC50 (second compound 1 µM): < 31.6 nM; viability, T/C [1]: 64.2%; viability, T/C [2]: 73.2%; viability, T/C [3]: 42%; viability, T/C [4]: 29.5%; viability, T/C [5]: 29.5%; viability, T/C [6]: 5.37%; viability, T/C [7]: 56.5%; viability, T/C [8]: 67.6%; viability, T/C [9]: 42.7%; viability, T/C [10]: 15.7%; viability, T/C [11]: 25.4%; viability, T/C [12]: 5.25%; viability, T/C [13]: 58.4%; viability, T/C [14]: 43.3%; viability, T/C [15]: 29.8%; viability, T/C [16]: 29.7%; viability, T/C [17]: 37.7%; viability, T/C [18]: 2.18%; viability, T/C [19]: 58.3%; viability, T/C [20]: 53.9%; viability, T/C [21]: 37.2%; viability, T/C [22]: 26.1%; viability, T/C [23]: 23.7%; viability, T/C [24]: 2.55%; viability, T/C [25]: 33.5%; viability, T/C [26]: 29.4%; viability, T/C [27]: 24.3%; viability, T/C [28]: 14.7%; viability, T/C [29]: 16.3%; viability, T/C [30]: 1.17%; viability, T/C [31]: 8.22%; viability, T/C [32]: 10.7%; viability, T/C [33]: 8.48%; viability, T/C [34]: 14.2%; viability, T/C [35]: 6.77%; viability, T/C [36]: 1.03%

Question: Which results are given for `Cn1nccc1Nc1nccc(-c2ccn(C(CO)c3ccc(Cl)c(F)c3)c(=O)c2)n1` (centres undefined) + COc1c(OCCCN2CCOCC2)ccc2c3n(c(=NC(=O)c4cnc(N)nc4)nc12)CCN3?
Answer: IC50 (second compound 0.00316 µM): > 10000 nM; IC50 (second compound 0.01 µM): > 10000 nM; IC50 (second compound 0.0316 µM): > 10000 nM; IC50 (second compound 0.1 µM): 791 nM; IC50 (second compound 0.316 µM): < 31.6 nM; IC50 (second compound 1 µM): < 31.6 nM; viability, T/C [1]: 90.5%; viability, T/C [2]: 86.6%; viability, T/C [3]: 86.4%; viability, T/C [4]: 91.4%; viability, T/C [5]: 80.1%; viability, T/C [6]: 70.1%; viability, T/C [7]: 90%; viability, T/C [8]: 78.2%; viability, T/C [9]: 67.7%; viability, T/C [10]: 78.3%; viability, T/C [11]: 67%; viability, T/C [12]: 56.3%; viability, T/C [13]: 92.1%; viability, T/C [14]: 75.9%; viability, T/C [15]: 70.6%; viability, T/C [16]: 65.9%; viability, T/C [17]: 53.7%; viability, T/C [18]: 54.3%; viability, T/C [19]: 84.9%; viability, T/C [20]: 72%; viability, T/C [21]: 58.4%; viability, T/C [22]: 46.2%; viability, T/C [23]: 40.3%; viability, T/C [24]: 24.4%; viability, T/C [25]: 20.4%; viability, T/C [26]: 37.7%; viability, T/C [27]: 27.1%; viability, T/C [28]: 14.2%; viability, T/C [29]: 12%; viability, T/C [30]: 9.88%; viability, T/C [31]: 5.63%; viability, T/C [32]: 5.4%; viability, T/C [33]: 6.24%; viability, T/C [34]: 5.85%; viability, T/C [35]: 2.1%; viability, T/C [36]: 1.53%
